Assay results published in patent EP2084165B1, “POSITIVELY CHARGED WATER-SOLUBLE PRODRUGS OF OXICAMS AND RELATED COMPOUNDS WITH VERY HIGH SKIN PENETRATION RATE” (Techfields Biochem Co. Ltd, priority 2006, dated 2008).
Structures can show the parent of a compound that is named as a salt. Where two headings read alike, the source gives them in different places.

Legend:
[1] = Solubility in water; details: for solubility: water, solubility in water
[2] = in vivo; details: mouse, topical or ocular
Method: The donor consisted of a 20% solution of these compounds in 1 mL of isopropanol applied to a 10 cm^2 on the backs of the hairless mice. Plasma levels of drugs were determined by a specific high-performance liquid chromatography method.

[3] = Acute toxicity, LD50 orally in mice; format: in vivo; details: mouse, in vivo
Source text: (§1) The acute toxicity of the prodrugs was investigated. […].

[4] = system: Rats; assay: Antipyretic activity: rats given sterilized E. coli suspension as pyrogen; format: in vivo; details: 25 mg/kg transdermally 2 hours after E. coli pyrogen, in °C (unit assumed)
Method: Antipyretic activity: Rats received a sterilized E. coli suspension as a pyrogen. […] The body temperature of the rats was taken at 90 min. intervals before and after the administration of the test compounds.

[5] = system: mice; assay: Acute toxicity, LD50 orally in mice; format: in vivo; details: oral, mice
Source text: as §1

[6] = system: mice; assay: Analgesic activity: acetic acid writhing test in mice; format: in vivo; details: for No. of Writhings: 50 mg/kg transdermally 60 minutes before acetic acid solution intraperitoneally, control group 35.0; for Rate of Inhibition (%): 50 mg/kg transdermally 60 minutes before acetic acid solution, based on the control group
Method: The number of writhings that occurred when mice were administered an acetic acid solution intraperitoneally were counted, and the rate of inhibition based on the control group was calculated. […] The group A is the control group.

[7] = prodrug versus the drug itself (testosterone); cited from earlier work
[8] = oral, mice, read-out: LD50 orally in mice

Compound | solubility [1] | Cmax [2] | Tmax [2] | LD50 ([3]; po) | body temperature of the rats, t = 0 min. [4] | body temperature of the rats, t = 90 min. [4] | body temperature of the rats, t = 180 min. [4] | body temperature of the rats, t = 270 min. [4] | No. of Writhings [6] | Rate of Inhibition (%) [6] | further results
CN(C)CCCC(=O)OC1=C(C(=O)Nc2ccccn2)N(C)S(=O)(=O)c2ccsc21 | > 300 mg/mL | ~500 µg/mL | ~50 min | 500 mg/kg | – | – | – | – | – | – | –
CN(C)CCCC(=O)OC1=C(C(=O)Nc2ccccn2)N(C)S(=O)(=O)c2ccccc21 | > 300 mg/mL | ~500 µg/mL | ~50 min | 550 mg/kg | – | – | – | – | – | – | –
Cc1cnc(NC(=O)C2=C(OC(=O)CCCN(C)C)c3ccccc3S(=O)(=O)N2C)s1.Cl | – | – | – | – | – | – | – | – | – | – | time until peak plasma levels were reached after application of the donor systems [2]: ~50 min
CN(C)CCCC(=O)OC1=C(C(=O)Nc2ccccn2)N(C)S(=O)(=O)c2cc(Cl)sc21 | > 300 mg/mL | ~500 µg/mL | ~50 min | 580 mg/kg | – | – | – | – | – | – | –
CN(C)CCCC(=O)OC(Nc1ccccn1)=C1C(=O)c2sc(Cl)cc2S(=O)(=O)N1C | > 300 mg/mL | ~500 µg/mL | ~50 min | 610 mg/kg | – | – | – | – | – | – | –
CN(C)CCCC(=O)OC1=C(C(=O)Nc2nccs2)N(C)S(=O)(=O)c2ccccc21 | – | – | ~50 min | 670 mg/kg | – | – | – | – | – | – | –
4- N,N-dimethylaminobutyryloxy - 2-methyl-N-[5-Methyl-3-isoxolyl-2H-1,2-benzothiazine-3-carboxamide 1,1-dioxide] .HCl [G] | – | – | – | – | 37.52±0.06 | 36.62±0.07 | 36.53±0.06 | 36.60±0.05 | 15.8 | 55% | peak plasma levels [2]: ~0.5 mg/mL; time until peak plasma levels were reached after application of the donor systems [2]: ~50 min; LD50 orally in mice [5]: 570 mg/kg
CN(C)CCCC(=O)OC1=C(C(=O)Nc2ccccn2)N(C)S(=O)(=O)c2ccccc21 [B, 4-N,N-dimethylaminobutyryloxy-2-methyl-N-2-pyridinyl-2H,1,2-benzothiazine-3-carb oxamide 1,1-dioxide.HCl] | – | – | – | – | 37.57±0.06 | 36.51±0.05 | 36.40±0.06 | 36.45±0.07 | 15.6 | 55% | solubility in water [1]: 250 mg/mL
CN(C)CCCC(=O)OC1=C(C(=O)Nc2nccs2)N(C)S(=O)(=O)c2ccccc21 [C, N-(2-thiazoyl)-4-N,N-dimethylaminobutyryloxy-2-methyl-2H,1,2-benzothiazine-3-carbo xamide 1,1-dioxide.HCl] | > 300 mg/mL | ~500 µg/mL | – | – | 37.50±0.07 | 36.61±0.04 | 36.50±0.07 | 36.60±0.05 | 15.7 | 55% | solubility in water ([1]; listed as N-(2-thiazolyl)-4-N,N-dimethylaminobutyryloxy-2-methyl-2H,1,2-benzothiazine-3-ca): 250 mg/mL
CN(C)CCCC(=O)OC1=C(C(=O)Nc2ccccn2)N(C)S(=O)(=O)c2cc(Cl)sc21 [Compound D, 6-chloro-4-N,N-dimethylaminobutyryloxy-2-methyl-N-2-pyridinyl-2H-thieno[2,3-e]-1 ,2-thiazine-3-carboxamide 1,1-dioxide.HCl] | – | – | – | – | 37.55±0.05 | 36.66±0.06 | 36.60±0.06 | 36.61±0.07 | 16.5 | 53% | solubility in water [1]: 250 mg/mL
CN(C)CCCC(=O)OC1=C(C(=O)Nc2ccccn2)N(C)S(=O)(=O)c2ccsc21 [E, 4-N,N-dimethylaminobutyryloxy-2-methyl-N-2-pyridinyl-2H-thieno[2,3-e]-1,2-thiazine-3-carboxamide 1,1-dioxide.HCl] | – | – | – | – | 37.54±0.06 | 36.61±0.06 | 36.58±0.08 | 36.55±0.05 | 16.9 | 53% | solubility in water [1]: 250 mg/mL
CN(C)CCCC(=O)OC(Nc1ccccn1)=C1C(=O)c2sc(Cl)cc2S(=O)(=O)N1C.Cl [F, 8-chloro-(4-N,N-dimethylaminobutyryloxy-pyridine-2-ylamino-methylidene)-3-methy 1-2,2-dioxo-2λ^6'7-dithia-3-azabicyclo[4,3,0]nona-8,10-dien-5-one.HCl] | – | – | – | – | 37.53±0.05 | 36.57±0.05 | 36.52±0.07 | 36.51±0.06 | 17.5 | 50% | –
Cc1cnc(NC(=O)C2=C(OC(=O)CCCN(C)C)c3ccccc3S(=O)(=O)N2C)s1 [H, 4-N,N-dimethylaminobutyryloxy-2-methyl-N-(5-methyl-2-thiazolyl)-2H-1,2-benzothiazine-3-carboxamide-1,1-dioxide.HCl] | – | ~500 µg/mL | – | – | 37.57±0.07 | 36.53±0.08 | 36.52±0.08 | 36.50±0.07 | 18.2 | 48% | LD50 [3, 8]: 590 mg/kg
CN1C(C(=O)Nc2ccccn2)=C(O)c2ccccc2S1(=O)=O [Piroxicam, reference compound] | – | ~5 µg/mL | – | – | – | – | – | – | – | – | LD50 [3, 8]: 360 mg/kg
CN(C)CCCC(=O)O[C@H]1CC[C@H]2[C@@H]3CCC4=CC(=O)CC[C@]4(C)[C@H]3CC[C@]12C.Cl [TSBH, testosteronyl-4-dimethylaminobutyrate.HCl] | – | – | – | – | – | – | – | – | – | – | diffuses through human skin faster than does the drug itself [7]: ~ 60 times
CN1C(C(=O)Nc2nccs2)=C(O)c2ccccc2S1(=O)=O [sudoxiam, reference compound] | – | – | – | – | – | – | – | – | – | – | peak plasma levels [2]: ~0.005 mg/mL
